Structures can show the parent of a compound that is named as a salt.
Columns and labels:
[1] = Pharmacokinetics following single oral dose administration in male Sprague-Dawley rats; assay type: in vivo; settings: single oral dose of the tartrate salt, 25 mg/kg, plasma, normalized to actual dosing concentration
Method: Blood samples were collected from all animals in Groups 1-3 at 0.25, 0.5, 1, 2, 4, 6, 8, 12 and 24 hours post dose, with each animal bled at all time points. […] The slopes of the elimination phase of the concentrations vs. time curve used to calculate the T1/2 were determined by log-linear regression.
PK analyses were performed and validated using Phoenix® WinNonlin® version 8.0.
Estimated elimination half-life (tr) was also similar among treatment groups (ranged between 1.5 and 2.7 hours post-dose).

[2] = biological target: T1, muscarinic acetylcholine receptor human M2 (hM2) (Homo sapiens, UniProt P08172); experiment: pERK dose response in CHO cells stably expressing hM2; assay type: cell-based; settings: rank hM3>hM5>hM2
T1 construct: expressed in transfected cells
T1 sequence (P08172 1-466): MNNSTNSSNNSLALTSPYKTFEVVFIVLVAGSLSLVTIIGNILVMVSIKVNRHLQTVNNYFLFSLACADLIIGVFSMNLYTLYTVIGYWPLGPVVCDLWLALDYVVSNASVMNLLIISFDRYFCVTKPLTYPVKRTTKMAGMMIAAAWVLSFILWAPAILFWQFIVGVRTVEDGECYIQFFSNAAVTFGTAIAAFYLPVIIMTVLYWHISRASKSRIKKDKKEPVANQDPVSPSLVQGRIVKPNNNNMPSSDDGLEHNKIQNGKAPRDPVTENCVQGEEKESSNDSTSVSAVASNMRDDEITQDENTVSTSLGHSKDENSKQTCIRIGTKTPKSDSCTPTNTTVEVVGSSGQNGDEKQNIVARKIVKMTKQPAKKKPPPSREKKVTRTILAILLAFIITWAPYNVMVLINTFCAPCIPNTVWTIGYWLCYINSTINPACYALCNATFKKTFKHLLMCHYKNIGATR

[3] = biological target: T2, muscarinic acetylcholine receptor human M3 (hM3) (Homo sapiens, UniProt P20309); experiment: pERK dose response in CHO cells stably expressing hM3; assay type: cell-based; settings: for EC50: CHO cells expressing hM3, 5-minute incubation, normalized to maximum FBS response, n=3, read-out: pEC50 (pERK), M3 (converted); for agonist capacity at hM3: pERK, rank hM3>hM5>hM2
T2 construct: expressed in transfected cells
T2 sequence (P20309 whole entry): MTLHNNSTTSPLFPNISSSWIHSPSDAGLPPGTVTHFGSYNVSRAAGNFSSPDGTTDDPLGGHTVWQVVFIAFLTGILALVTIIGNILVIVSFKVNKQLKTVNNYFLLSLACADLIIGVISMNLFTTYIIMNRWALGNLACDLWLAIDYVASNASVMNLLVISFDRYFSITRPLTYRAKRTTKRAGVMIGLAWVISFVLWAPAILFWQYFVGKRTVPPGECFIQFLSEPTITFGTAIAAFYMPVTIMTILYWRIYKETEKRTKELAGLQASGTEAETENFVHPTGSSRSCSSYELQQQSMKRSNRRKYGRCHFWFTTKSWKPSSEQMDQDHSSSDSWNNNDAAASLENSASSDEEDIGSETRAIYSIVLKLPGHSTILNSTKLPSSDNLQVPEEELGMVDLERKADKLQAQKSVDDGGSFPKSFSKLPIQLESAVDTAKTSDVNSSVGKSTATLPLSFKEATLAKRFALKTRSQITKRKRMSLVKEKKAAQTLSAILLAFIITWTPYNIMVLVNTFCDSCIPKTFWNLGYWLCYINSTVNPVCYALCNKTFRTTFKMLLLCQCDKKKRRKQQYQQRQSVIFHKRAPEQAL

[4] = biological target: T3, muscarinic acetylcholine receptor human M4 (hM4) (Homo sapiens, UniProt P08173); settings: pERK; rank hM4>hM1
T3 sequence (P08173 1-479): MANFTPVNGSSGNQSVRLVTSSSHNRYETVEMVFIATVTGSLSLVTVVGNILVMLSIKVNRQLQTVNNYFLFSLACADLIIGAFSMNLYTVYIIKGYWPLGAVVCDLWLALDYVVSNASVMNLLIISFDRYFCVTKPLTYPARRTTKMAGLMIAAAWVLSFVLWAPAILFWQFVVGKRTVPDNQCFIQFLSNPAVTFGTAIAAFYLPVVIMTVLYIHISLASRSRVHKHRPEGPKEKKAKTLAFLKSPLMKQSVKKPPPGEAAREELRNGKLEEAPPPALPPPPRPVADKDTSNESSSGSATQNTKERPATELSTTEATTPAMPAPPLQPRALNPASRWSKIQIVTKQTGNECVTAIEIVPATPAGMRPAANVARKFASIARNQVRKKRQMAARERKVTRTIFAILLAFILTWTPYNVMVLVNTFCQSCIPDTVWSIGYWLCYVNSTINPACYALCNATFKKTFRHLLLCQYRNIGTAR
Description: (§1) The Flp-In™ cell lines are designed for rapid generation of stable cell lines that express a protein of interest from a Flp-In™ expression vector.
(§2) Extracellular signal-related kinase (ERK1/2 or p42/44) is a kinase in the mitogen-activated protein kinase (MAPK) family. Phosphorylation of ERK (pERK) can be used as a common end point measurement for the activation of many classes of G protein coupled receptors (GPCR) and beta-arrestin linked signaling.
(§3) For the pERK assay, cells were serum starved for 5 to 6 hours. Curves were normalized to the maximum response from the fetal bovine serum (FBS) medium corresponding to a 5-minute stimulation. A 5-minute incubation with the agonists was selected for the dose response pERK assays (n=2).
(§4) Nonlinear regression curves were calculated per the three parameters method with no constraints.

[5] = biological target: T4, muscarinic acetylcholine receptor human M5 (hM5) (Homo sapiens, UniProt P08912); experiment: pERK dose response in CHO cells stably expressing hM5; assay type: cell-based; settings: rank hM3>hM5>hM2
T4 construct: expressed in transfected cells
T4 sequence (P08912 1-532): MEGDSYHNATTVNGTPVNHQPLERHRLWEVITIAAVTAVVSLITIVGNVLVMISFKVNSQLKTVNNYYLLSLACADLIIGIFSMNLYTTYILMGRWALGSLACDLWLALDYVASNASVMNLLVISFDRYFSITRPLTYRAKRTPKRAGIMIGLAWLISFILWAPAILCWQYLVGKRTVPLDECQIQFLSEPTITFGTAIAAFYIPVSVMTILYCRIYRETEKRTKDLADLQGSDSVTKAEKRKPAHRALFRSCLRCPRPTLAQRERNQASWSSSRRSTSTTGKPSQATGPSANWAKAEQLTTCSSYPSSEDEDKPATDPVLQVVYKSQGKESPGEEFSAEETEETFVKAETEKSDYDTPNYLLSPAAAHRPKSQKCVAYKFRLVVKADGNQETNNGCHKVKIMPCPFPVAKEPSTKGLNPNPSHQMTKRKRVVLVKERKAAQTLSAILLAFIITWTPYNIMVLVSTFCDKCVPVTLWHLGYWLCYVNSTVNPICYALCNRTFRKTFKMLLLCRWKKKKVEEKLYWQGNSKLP
Description: as §1, §2, §3, §4

Structure (SMILES) | normalized AUC [1] [pg·h/mg] | agonist capacity at hM2 [2] | EC50 [3] [nM] | agonist capacity at hM3 [3] | agonist capacity at hM4 [4] | agonist capacity at hM5 [5]
[2H]C([2H])([2H])N1CCC=C(c2nsnc2OC([2H])([2H])C([2H])([2H])C([2H])([2H])C([2H])([2H])C([2H])([2H])C([2H])([2H])[2H])C1 [Xanomeline-d16, 3-((hexyl-1,1,2,2,3,3,4,4,5,5,6,6,6-d13)oxy)-4-(1-(methyl-d3)-1,2,5,6-tetrahydropyridin-3-yl)-1,2,5-thiadiazole] | 6780 | modestly potent partial agonists | 27.2 | modestly potent partial agonists | efficacious partial agonist | modestly potent partial agonists
[2H]C([2H])([2H])C([2H])([2H])C([2H])([2H])C([2H])([2H])C([2H])([2H])C([2H])([2H])Oc1nsnc1C1=CCCN(C)C1 [Xanomeline-d13, 3-((hexyl-1,1,2,2,3,3,4,4,5,5,6,6,6-d13)oxy)-4-(1-methyl-1,2,5,6-tetrahydropyridin-3-yl)-1,2,5-thiadiazole] | 8070 | modestly potent partial agonists | 9.66 | modestly potent partial agonists | efficacious partial agonist | modestly potent partial agonists
CCCCCCOc1nsnc1C1=CCCN(C)C1 [Xanomeline tartrate, 3-(hexyloxy)-4-(1-methyl-1,2,5,6-tetrahydropyridin-3-yl)-1,2,5-thiadiazole, reference compound] | 4210 | – | – | – | – | –
